Laboratory results as given in patent US20100172988A1, “SUSTAINED RELEASE PREPARATION AND METHOD FOR PRODUCTION THEREOF” (KISSEI PHARMACEUTICAL CO., LTD., priority 2006, published 2010).

Experiments:
[1] = pH dependence of the dissolution rate of compound (I); type: physicochemical; settings: compared with approximately pH 1.2 (gastric juice) and approximately pH 6.8 (intestinal juice)
[2] = Decomposition of compound (I) on adding a basic ingredient; type: physicochemical; settings: basic ingredient added to compound (I)

Compound: CCOC(=O)COc1cc(C)c(CCN[C@@H](C)[C@H](O)c2ccc(O)cc2)cc1C.Cl [compound (I), Ethyl (−)-2-[4-[2-[[(1S,2R)-2-hydroxy-2-(4-hydroxy-phenyl)-1-methylethyl]amino]ethyl]-2,5-dimethylphenoxy]-acetate hydrochloride]
- pH of the highest dissolution rate of the active ingredient [1]: highest dissolution rate at approximately pH 4
- decomposition of compound (I) [2]: decomposition of compound (I) itself was accelerated
